System: NCI60 cell lines
Test: NCI60 cell line panel
Assay type: cell-based, human
Protocol: The Developmental Therapeutics Program (DTP) of NCI has evaluated more than 100,000 pure compounds and more than 34,000 crude extracts against the panel of human tumor cell lines. The resultant data are analyzed using a program called COMPARE, that rank the entire database of tested compounds in the order of the similarity of the responses. […] Thus, the NCI60 databases is highly useful to the cancer research community. Further experiments were conducted that tested some of the active compounds in a panel of NCI60 cell line to relate our compounds with some known inhibitors to have an idea of possible mechanism of action.
In order to understand the selectivity of these compounds in different cancer types, some of them were tested against a panel of 60 cell lines (Table XXXIX).

CCN(CC)CCCC(C)Nc1cnc(C(=O)Nc2cc(C)cc3cccnc23)cn1 (centres unmarked) [J4, 5-((5-(diethylamino)pentan-2-yl)amino)-N-(6-methylquinolin-8-yl)pyrazine-2-carboxamide]
GIPRCNT: % Growth inhibition (Breast Cancer, BT-549): 93.26% | GIPRCNT: % Growth inhibition (Breast Cancer, HS 578T): 79.89% | GIPRCNT: % Growth inhibition (Breast Cancer, MCF7): 57.27% | GIPRCNT: % Growth inhibition (Breast Cancer, MDA-MB-231/ATCC): 89.17% | GIPRCNT: % Growth inhibition (Breast Cancer, MDA-MB-468): 9.358% | GIPRCNT: % Growth inhibition (Breast Cancer, T-47D): 32.641% | GIPRCNT: % Growth inhibition (CNS Cancer, SF-268): 66.12% | GIPRCNT: % Growth inhibition (CNS Cancer, SF-295): 98.94% | GIPRCNT: % Growth inhibition (CNS Cancer, SF-539): 86.87% | GIPRCNT: % Growth inhibition (CNS Cancer, SNB-19): 89.24% | GIPRCNT: % Growth inhibition (CNS Cancer, SNB-75): 78.26% | GIPRCNT: % Growth inhibition (CNS Cancer, U251): 78.39% | GIPRCNT: % Growth inhibition (Colon Cancer, COLO 205): 37.0068% | GIPRCNT: % Growth inhibition (Colon Cancer, HCC-2998): 89.8% | GIPRCNT: % Growth inhibition (Colon Cancer, HCT-15): 59.89% | GIPRCNT: % Growth inhibition (Colon Cancer, HCT-116): 18.05% | GIPRCNT: % Growth inhibition (Colon Cancer, HT29): 37.31% | GIPRCNT: % Growth inhibition (Colon Cancer, KM12): 97.9% | GIPRCNT: % Growth inhibition (Colon Cancer, SW-620): 75.26% | GIPRCNT: % Growth inhibition (Leukemia, CCRF-CEM): 54.24% | GIPRCNT: % Growth inhibition (Leukemia, HL-60(TB)): 76.8% | GIPRCNT: % Growth inhibition (Leukemia, K-562): 25.88% | GIPRCNT: % Growth inhibition (Leukemia, MOLT-4): 46.46% | GIPRCNT: % Growth inhibition (Leukemia, RPMI-8226): 77.97% | GIPRCNT: % Growth inhibition (Leukemia, SR): 81.88% | GIPRCNT: % Growth inhibition (Melanoma, LOX IMVI): 87% | GIPRCNT: % Growth inhibition (Melanoma, M14): 98.61% | GIPRCNT: % Growth inhibition (Melanoma, MALME-3M): 107.0521% | GIPRCNT: % Growth inhibition (Melanoma, MDA-MB-435): 83.68% | GIPRCNT: % Growth inhibition (Melanoma, SK-MEL-2): 104.3875% | GIPRCNT: % Growth inhibition (Melanoma, SK-MEL-5): 83.12% | GIPRCNT: % Growth inhibition (Melanoma, UACC-62): 98.62% | GIPRCNT: % Growth inhibition (Melanoma, UACC-257): 71.75% | GIPRCNT: % Growth inhibition (Non-Small Cell Lung Cancer, A549/ATCC): 72.8% | GIPRCNT: % Growth inhibition (Non-Small Cell Lung Cancer, EKVX): 77.77% | GIPRCNT: % Growth inhibition (Non-Small Cell Lung Cancer, HOP-62): 91.15% | GIPRCNT: % Growth inhibition (Non-Small Cell Lung Cancer, HOP-92): 51.4% | GIPRCNT: % Growth inhibition (Non-Small Cell Lung Cancer, NCI-H23): 96.3% | GIPRCNT: % Growth inhibition (Non-Small Cell Lung Cancer, NCI-H226): 60.39% | GIPRCNT: % Growth inhibition (Non-Small Cell Lung Cancer, NCI-H322M): 84.18% | GIPRCNT: % Growth inhibition (Non-Small Cell Lung Cancer, NCI-H460): 79.5% | GIPRCNT: % Growth inhibition (Non-Small Cell Lung Cancer, NCI-H522): 96.8365% | GIPRCNT: % Growth inhibition (Ovarian Cancer, IGROV1): 68.68% | GIPRCNT: % Growth inhibition (Ovarian Cancer, NCI/ADR-RES): 92.67% | GIPRCNT: % Growth inhibition (Ovarian Cancer, OVCAR-3): 20.46% | GIPRCNT: % Growth inhibition (Ovarian Cancer, OVCAR-4): 58.85% | GIPRCNT: % Growth inhibition (Ovarian Cancer, OVCAR-5): 97.58% | GIPRCNT: % Growth inhibition (Ovarian Cancer, OVCAR-8): 86.9118% | GIPRCNT: % Growth inhibition (Ovarian Cancer, SK-OV-3): 103.7568% | GIPRCNT: % Growth inhibition (Prostate Cancer, DU-145): 80.68% | GIPRCNT: % Growth inhibition (Prostate Cancer, PC-3): 83.08% | GIPRCNT: % Growth inhibition (Renal Cancer, 786-0): 88.22% | GIPRCNT: % Growth inhibition (Renal Cancer, A498): 70.33% | GIPRCNT: % Growth inhibition (Renal Cancer, ACHN): 77.87% | GIPRCNT: % Growth inhibition (Renal Cancer, CAKI-1): 93.45% | GIPRCNT: % Growth inhibition (Renal Cancer, RXF 393): 72.29% | GIPRCNT: % Growth inhibition (Renal Cancer, SN12C): 77.92% | GIPRCNT: % Growth inhibition (Renal Cancer, TK-10): 86.86% | GIPRCNT: % Growth inhibition (Renal Cancer, UO-31): 63.33%

From patent publication US20220081412A1, “QUINOLINYL-PYRAZINE-CARBOXAMIDE COMPOUNDS AND USES THEREOF” (The Regents of the University of Michigan, priority 2018, published 2022)
